Assays:
[1] = molecular target: T1, ALK (Homo sapiens, UniProt Q9UM73); experiment: Kinase panel profiling at 1 µmol/L (mobility shift assay, Carna); assay type: biochemical; settings: 1 µmol/L of BTK inhibitor
T1 construct: purchased Carna Biosciences

[2] = molecular target: T2, HCK (Homo sapiens, UniProt P08631); experiment: as above; assay type: biochemical; settings: 1 µmol/L of BTK inhibitor
T2 construct: purchased Carna Biosciences

[3] = molecular target: T3, JAK2 (Homo sapiens, UniProt O60674); experiment: as above; assay type: biochemical; settings: 1 µmol/L of BTK inhibitor
T3 construct: purchased Carna Biosciences

[4] = molecular target: T4, CLK2 (Homo sapiens, UniProt P49760); experiment: as above; assay type: biochemical; settings: 1 µmol/L of BTK inhibitor
T4 construct: purchased Carna Biosciences

[5] = molecular target: T5, DYRK1B (Homo sapiens, UniProt Q9Y463); experiment: as above; assay type: biochemical; settings: 1 µmol/L of BTK inhibitor
T5 construct: purchased Carna Biosciences
T5 sequence (Q9Y463 whole entry): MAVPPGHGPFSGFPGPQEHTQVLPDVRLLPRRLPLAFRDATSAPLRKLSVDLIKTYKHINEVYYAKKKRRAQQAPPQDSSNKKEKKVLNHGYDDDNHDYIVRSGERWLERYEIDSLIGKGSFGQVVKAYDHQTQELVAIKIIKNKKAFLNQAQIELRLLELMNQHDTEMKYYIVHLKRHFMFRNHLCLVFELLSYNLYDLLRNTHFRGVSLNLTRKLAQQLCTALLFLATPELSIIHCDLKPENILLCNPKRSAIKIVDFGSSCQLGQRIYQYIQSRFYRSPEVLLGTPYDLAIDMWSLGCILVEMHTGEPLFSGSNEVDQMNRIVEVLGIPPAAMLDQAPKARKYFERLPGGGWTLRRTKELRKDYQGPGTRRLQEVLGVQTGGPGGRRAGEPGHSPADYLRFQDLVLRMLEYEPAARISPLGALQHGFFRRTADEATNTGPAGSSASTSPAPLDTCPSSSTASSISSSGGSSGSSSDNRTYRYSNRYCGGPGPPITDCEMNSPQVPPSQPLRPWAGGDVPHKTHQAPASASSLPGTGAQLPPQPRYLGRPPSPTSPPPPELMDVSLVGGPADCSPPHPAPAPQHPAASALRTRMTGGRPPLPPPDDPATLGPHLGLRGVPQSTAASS

[6] = molecular target: T6, DYRK2 (Homo sapiens, UniProt Q92630); experiment: as above; assay type: biochemical; settings: 1 µmol/L of BTK inhibitor
T6 construct: purchased Carna Biosciences
T6 sequence (Q92630 1-601): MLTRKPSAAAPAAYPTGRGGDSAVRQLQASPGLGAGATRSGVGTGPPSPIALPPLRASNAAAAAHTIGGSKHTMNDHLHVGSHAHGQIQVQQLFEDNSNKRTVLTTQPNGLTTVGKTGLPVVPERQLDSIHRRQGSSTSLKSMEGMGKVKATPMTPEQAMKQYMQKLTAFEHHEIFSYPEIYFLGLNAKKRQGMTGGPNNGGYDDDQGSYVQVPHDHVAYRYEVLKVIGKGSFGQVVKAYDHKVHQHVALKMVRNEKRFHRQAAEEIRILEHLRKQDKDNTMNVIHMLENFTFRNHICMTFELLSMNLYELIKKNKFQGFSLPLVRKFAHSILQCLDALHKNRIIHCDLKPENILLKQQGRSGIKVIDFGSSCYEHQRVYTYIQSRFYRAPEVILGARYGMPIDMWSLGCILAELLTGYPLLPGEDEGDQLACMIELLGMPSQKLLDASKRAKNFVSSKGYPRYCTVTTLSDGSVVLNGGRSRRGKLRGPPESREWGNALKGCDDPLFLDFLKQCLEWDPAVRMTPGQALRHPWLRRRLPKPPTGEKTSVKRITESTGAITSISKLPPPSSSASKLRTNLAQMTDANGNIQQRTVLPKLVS

[7] = molecular target: T7, GSK3α (Homo sapiens, UniProt P49840); experiment: as above; assay type: biochemical; settings: 1 µmol/L of BTK inhibitor
T7 construct: purchased Carna Biosciences
T7 sequence (P49840 whole entry): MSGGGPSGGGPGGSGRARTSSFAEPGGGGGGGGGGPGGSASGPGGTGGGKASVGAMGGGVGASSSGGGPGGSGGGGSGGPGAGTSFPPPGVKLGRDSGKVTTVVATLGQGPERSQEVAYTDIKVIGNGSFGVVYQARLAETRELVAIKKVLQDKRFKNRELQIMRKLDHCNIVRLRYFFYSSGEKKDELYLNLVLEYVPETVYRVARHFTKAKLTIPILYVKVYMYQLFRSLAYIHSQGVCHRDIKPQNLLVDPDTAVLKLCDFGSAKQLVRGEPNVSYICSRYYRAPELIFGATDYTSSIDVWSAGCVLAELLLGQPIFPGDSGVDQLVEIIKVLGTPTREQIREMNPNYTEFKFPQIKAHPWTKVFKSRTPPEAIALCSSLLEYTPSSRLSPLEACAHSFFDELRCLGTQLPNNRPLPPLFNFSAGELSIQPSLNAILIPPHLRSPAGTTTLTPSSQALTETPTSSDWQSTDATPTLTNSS

[8] = molecular target: T8, IRAK4 (Homo sapiens, UniProt Q9NWZ3); experiment: as above; assay type: biochemical; settings: 1 µmol/L of BTK inhibitor
T8 construct: purchased Carna Biosciences
T8 sequence (Q9NWZ3 1-460): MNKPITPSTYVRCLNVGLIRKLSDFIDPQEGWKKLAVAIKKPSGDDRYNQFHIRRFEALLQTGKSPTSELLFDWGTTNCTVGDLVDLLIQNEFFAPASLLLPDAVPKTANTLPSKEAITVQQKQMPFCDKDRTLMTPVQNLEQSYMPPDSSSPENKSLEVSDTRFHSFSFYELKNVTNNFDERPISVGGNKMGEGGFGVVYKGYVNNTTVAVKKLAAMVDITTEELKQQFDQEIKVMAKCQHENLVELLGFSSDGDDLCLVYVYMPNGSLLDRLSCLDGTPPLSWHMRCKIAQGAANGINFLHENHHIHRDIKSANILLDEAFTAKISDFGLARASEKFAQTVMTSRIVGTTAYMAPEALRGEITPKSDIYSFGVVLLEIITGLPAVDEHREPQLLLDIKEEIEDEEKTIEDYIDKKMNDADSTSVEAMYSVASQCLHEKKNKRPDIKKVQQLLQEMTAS

[9] = molecular target: T9, LOK (Homo sapiens, UniProt O94804); experiment: as above; assay type: biochemical; settings: 1 µmol/L of BTK inhibitor
T9 construct: purchased Carna Biosciences
T9 sequence (O94804 whole entry): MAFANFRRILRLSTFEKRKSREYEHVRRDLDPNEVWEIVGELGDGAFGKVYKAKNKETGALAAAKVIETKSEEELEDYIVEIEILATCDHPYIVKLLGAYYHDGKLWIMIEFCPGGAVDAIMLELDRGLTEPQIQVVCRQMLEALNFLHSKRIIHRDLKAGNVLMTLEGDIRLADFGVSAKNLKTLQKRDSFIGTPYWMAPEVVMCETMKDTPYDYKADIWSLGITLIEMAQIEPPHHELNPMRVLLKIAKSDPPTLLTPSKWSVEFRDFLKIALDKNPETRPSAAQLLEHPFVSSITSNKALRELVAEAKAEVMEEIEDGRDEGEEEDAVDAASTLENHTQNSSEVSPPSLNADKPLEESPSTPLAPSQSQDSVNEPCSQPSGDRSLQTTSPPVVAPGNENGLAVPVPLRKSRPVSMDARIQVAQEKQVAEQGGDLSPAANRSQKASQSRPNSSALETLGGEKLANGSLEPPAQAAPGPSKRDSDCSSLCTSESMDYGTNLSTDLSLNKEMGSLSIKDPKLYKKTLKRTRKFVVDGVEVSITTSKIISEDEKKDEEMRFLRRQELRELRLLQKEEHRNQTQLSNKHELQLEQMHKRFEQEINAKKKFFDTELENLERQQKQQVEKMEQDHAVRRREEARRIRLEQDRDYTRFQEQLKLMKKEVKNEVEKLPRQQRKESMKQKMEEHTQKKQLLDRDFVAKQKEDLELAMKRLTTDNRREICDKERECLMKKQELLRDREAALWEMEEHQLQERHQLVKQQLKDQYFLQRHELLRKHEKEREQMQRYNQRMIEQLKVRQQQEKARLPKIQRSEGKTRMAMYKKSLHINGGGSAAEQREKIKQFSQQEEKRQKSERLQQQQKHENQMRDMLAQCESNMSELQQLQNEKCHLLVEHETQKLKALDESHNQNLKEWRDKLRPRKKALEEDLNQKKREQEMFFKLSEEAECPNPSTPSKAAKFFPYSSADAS

[10] = molecular target: T10, MSSK1 (Homo sapiens, UniProt Q9UPE1); experiment: as above; assay type: biochemical; settings: 1 µmol/L of BTK inhibitor
T10 construct: purchased Carna Biosciences

[11] = molecular target: T11, NEK2 (Homo sapiens, UniProt P51955); experiment: as above; assay type: biochemical; settings: 1 µmol/L of BTK inhibitor
T11 construct: purchased Carna Biosciences
T11 sequence (P51955 1-445): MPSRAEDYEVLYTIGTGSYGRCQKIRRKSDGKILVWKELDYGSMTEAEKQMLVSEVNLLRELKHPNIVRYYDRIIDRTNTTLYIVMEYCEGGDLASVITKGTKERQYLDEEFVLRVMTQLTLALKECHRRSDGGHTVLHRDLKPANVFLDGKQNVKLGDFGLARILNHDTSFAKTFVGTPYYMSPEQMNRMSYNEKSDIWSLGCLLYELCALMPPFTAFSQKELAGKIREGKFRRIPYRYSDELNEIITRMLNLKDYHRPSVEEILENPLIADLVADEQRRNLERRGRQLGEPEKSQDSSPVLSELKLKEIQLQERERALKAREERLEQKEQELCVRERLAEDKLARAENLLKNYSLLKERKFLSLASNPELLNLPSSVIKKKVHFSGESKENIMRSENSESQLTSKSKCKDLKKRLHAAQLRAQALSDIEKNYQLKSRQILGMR

[12] = molecular target: T12, PKACβ (Homo sapiens, UniProt P22694); experiment: as above; assay type: biochemical; settings: 1 µmol/L of BTK inhibitor
T12 construct: purchased Carna Biosciences

[13] = molecular target: FGFR4 (Homo sapiens, UniProt P22455); experiment: Kinase enzyme activity assay (mobility shift assay, Carna); settings: for Percentage inhibition of kinase enzyme activity: FGFR4, 1 µmol/L of BTK inhibitor
Chain of FGFR4 (P22455 22-802): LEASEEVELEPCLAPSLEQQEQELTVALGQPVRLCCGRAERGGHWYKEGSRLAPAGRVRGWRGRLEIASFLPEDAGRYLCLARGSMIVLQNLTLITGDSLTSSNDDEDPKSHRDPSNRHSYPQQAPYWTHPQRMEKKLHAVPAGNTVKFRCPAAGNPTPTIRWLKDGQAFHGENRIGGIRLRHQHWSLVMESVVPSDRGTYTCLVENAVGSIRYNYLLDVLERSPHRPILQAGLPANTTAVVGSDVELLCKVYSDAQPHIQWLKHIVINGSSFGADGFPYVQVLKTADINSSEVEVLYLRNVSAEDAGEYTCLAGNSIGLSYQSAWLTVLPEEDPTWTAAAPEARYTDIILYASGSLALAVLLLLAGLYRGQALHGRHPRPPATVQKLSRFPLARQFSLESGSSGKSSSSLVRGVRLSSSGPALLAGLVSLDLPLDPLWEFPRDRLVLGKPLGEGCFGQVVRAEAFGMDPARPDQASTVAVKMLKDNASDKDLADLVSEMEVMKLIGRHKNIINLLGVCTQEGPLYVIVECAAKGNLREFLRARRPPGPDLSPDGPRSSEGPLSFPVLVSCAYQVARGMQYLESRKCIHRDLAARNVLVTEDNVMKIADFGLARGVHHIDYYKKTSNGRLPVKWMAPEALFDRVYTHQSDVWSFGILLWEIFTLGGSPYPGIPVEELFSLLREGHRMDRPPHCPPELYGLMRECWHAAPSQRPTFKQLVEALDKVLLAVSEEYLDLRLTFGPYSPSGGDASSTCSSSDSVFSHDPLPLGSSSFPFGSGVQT

[14] = molecular target: CSK (Homo sapiens, UniProt P41240); experiment: Kinase panel profiling at 1 µmol/L (mobility shift assay, Carna); settings: for Percentage inhibition of kinase enzyme activity: CSK, 1 µmol/L of BTK inhibitor

T1 sequence (Q9UM73 19-1620): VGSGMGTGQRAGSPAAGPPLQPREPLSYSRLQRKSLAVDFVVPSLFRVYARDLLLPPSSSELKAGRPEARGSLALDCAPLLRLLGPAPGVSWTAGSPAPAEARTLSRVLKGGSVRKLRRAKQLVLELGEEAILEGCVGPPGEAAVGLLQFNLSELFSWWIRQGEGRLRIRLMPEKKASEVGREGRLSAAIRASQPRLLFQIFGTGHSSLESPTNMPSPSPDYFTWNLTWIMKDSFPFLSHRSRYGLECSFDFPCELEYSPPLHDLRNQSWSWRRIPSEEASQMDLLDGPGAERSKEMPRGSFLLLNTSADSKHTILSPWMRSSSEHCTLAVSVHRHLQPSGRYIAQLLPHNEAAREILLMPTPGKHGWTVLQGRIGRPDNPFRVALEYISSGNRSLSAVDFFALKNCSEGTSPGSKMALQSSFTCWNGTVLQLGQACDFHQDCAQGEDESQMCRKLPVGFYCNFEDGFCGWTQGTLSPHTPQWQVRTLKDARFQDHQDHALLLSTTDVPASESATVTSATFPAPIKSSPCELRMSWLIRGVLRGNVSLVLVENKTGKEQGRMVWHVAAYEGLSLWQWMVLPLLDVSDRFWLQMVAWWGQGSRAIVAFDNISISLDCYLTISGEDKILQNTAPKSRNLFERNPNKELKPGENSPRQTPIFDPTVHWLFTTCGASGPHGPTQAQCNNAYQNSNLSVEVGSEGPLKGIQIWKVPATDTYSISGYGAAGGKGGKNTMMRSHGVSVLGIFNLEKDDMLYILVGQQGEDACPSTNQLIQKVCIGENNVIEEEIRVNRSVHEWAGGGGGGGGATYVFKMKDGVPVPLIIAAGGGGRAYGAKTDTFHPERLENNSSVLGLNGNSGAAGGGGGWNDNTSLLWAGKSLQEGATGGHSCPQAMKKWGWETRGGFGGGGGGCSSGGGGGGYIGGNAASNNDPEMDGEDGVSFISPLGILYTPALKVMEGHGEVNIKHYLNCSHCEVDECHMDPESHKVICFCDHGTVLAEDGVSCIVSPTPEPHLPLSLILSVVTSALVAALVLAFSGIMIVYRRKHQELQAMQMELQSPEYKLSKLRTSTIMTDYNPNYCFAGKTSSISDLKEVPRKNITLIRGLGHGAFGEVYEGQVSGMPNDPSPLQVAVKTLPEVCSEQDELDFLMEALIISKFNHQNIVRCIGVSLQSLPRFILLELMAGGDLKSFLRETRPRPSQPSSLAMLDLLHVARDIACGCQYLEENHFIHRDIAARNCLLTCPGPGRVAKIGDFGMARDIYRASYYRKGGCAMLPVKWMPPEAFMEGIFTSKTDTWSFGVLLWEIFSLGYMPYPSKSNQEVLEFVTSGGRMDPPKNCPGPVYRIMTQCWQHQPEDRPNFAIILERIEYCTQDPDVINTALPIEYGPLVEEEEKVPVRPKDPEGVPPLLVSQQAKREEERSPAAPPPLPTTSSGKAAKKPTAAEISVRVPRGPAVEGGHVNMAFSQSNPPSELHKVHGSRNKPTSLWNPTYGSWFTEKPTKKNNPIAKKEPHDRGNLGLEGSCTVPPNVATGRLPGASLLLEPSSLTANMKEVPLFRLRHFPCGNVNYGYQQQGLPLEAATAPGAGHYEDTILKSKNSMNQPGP
T2 sequence (P08631 whole entry): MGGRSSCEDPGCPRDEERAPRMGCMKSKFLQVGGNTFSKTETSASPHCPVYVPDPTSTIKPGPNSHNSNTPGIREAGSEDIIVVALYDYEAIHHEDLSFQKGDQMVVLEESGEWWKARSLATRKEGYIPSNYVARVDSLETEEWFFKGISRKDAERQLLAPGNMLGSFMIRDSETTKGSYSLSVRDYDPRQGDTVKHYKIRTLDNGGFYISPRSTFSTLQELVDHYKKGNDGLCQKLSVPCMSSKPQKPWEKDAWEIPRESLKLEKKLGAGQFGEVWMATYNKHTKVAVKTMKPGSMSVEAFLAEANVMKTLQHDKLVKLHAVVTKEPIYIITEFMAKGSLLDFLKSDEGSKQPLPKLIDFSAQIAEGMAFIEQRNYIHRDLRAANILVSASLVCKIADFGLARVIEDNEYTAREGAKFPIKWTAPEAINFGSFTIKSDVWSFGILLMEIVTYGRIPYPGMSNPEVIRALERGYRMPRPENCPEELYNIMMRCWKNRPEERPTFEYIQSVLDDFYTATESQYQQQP

| SMILES | Percentage inhibition of kinase enzyme activity [1] | Percentage inhibition of kinase enzyme activity [2] | Percentage inhibition of kinase enzyme activity [3] | Percentage inhibition of kinase enzyme activity [4] | Percentage inhibition of kinase enzyme activity [5] | Percentage inhibition of kinase enzyme activity [6] | Percentage inhibition of kinase enzyme activity [7] | Percentage inhibition of kinase enzyme activity [8] | Percentage inhibition of kinase enzyme activity [9] | Percentage inhibition of kinase enzyme activity [10] | Percentage inhibition of kinase enzyme activity [11] | Percentage inhibition of kinase enzyme activity [12] | Percentage inhibition of kinase enzyme activity [13] | Percentage inhibition of kinase enzyme activity [14] | inhibition at 1 µM ([14]; read-out: Inhibition of CSK) | IC50 [13] |
| --- | --- | --- | --- | --- | --- | --- | --- | --- | --- | --- | --- | --- | --- | --- | --- | --- |
| CC#CC(=O)N1CCC[C@H]1c1nc(-c2ccc(C(=O)Nc3ccccn3)cc2)c2c(N)nccn12 [acalabrutinib] | 5.27% | 0.45% | -9.14% | -6.97% | -19.49% | -16.01% | 2.47% | -6.55% | 3.37% | -4.86% | -6.35% | -13.09% | -8.97% | 6.97% |  |  |
| COc1ccc(F)cc1C(=O)NCc1ccc(-c2nn([C@@H](C)C(F)(F)F)c(N)c2C(N)=O)cc1 [pirtobrutinib] | 6.67% | 24.69% | 0.45% | 10.54% | 12.04% | -4.14% | -5.30% | -1.11% | -1.51% | -8.63% | 2.00% | -8.02% | 1.27% | 79.14% | > 75% |  |
| C=CC(=O)N1CCC[C@@H](n2nc(-c3ccc(Oc4ccccc4)cc3)c3c(N)ncnc32)C1 [ibrutinib] | 5.45% | 99.66% | 0.41% |  | 1.91% | -1.83% | 2.24% | -5.09% | 24.15% | 1.54% | 6.64% | -9.04% | 36.91% |  |  |  |
| O=C(c1ccc(Oc2ccccc2)cc1Cl)c1c[nH]c2ncnc(N[C@@H]3CC[C@@H](CO)OC3)c12 [nemtabrutinib] | 50.65% | 96.80% | 14.34% | 56.28% | -3.59% | -2.66% | -3.85% | 2.38% | 83.97% | -0.95% | 74.64% | 12.59% | 1.97% | 98.66% |  | 1400 nM |
| C=CC(=O)N1CCC([C@@H]2CCNc3c(C(N)=O)c(-c4ccc(Oc5ccccc5)cc4)nn32)CC1 [zanubrutinib] |  |  | 9.66% |  |  |  |  |  |  |  |  |  | 0.81% |  |  |  |

Reference: PMC12586182 (Frontiers in Oncology, 2025)
